According to the Deep4Chem optical property database:

Assay: photoluminescence quantum yield (fraction); solvent given as SMILES

In the case of `COC(=O)C1=C(C(=O)OC)C2(c3ccccc3-c3c(C(=O)OC)cccc32)[C@@H](c2ccc(Cl)cc2)C=C2c3cc(OC)c(OC)cc3CCN21` (some centres not stated), the photoluminescence quantum yield (in ClCCl) is reported as 0.00593.
With `O=S1(=O)c2ccc(-c3ccc4c(c3)c3ccccc3n4-c3ccccc3)cc2C2(c3cc(-c4ccc5c(c4)c4ccccc4n5-c4ccccc4)ccc31)c1cc(-c3ccc4c(c3)c3ccccc3n4-c3ccccc3)ccc1S(=O)(=O)c1ccc(-c3ccc4c(c3)c3ccccc3n4-c3ccccc3)cc12` the photoluminescence quantum yield (in CC1CCCO1) was 0.83.
Work on `CN1/C(=C/C=C(/C=C/C2=[N+](C)c3ccccc3C2(C)C)c2cccc(C(F)(F)F)c2)C(C)(C)c2ccccc21` yielded a photoluminescence quantum yield (in CCO) of 0.11 and a photoluminescence quantum yield (in CS(C)=O) of 0.16.
For `C(=C\c1ccc(-c2cccc3ccccc23)s1)/c1cccs1`, the photoluminescence quantum yield (in ClCCl) was 0.25.
`CCOC(=O)c1cc(C(=O)OCC)c2cc(N(CC)CC)ccc2n1` showed a photoluminescence quantum yield (in CCO) of 0.49.
`O=C([O-])c1ccc(C(=O)[O-])c2cc3ccccc3cc12` gave a photoluminescence quantum yield (in CN(C)C=O) of 0.066.
For `Oc1ccccc1/C=N/c1cc2nc3ccccc3nc2cc1/N=C/c1ccccc1O`, the photoluminescence quantum yield (in CC#N) was 0.34.
With `CCCCN(CCCC)c1ccc(/C=C/c2ccc(-c3ccc(/C=C/c4ccc(N(CCCC)CCCC)cc4)cc3)cc2)cc1` the photoluminescence quantum yield (in CS(C)=O) was 0.89 and the photoluminescence quantum yield (in Cc1ccccc1) was 0.81.
For `COC1(OC)C2(Cl)c3nc4cc(-c5cccs5)ccc4nc3C1(Cl)C1C[C@H]3[C@@H](CC12)C1(Cl)c2nc4ccc(-c5cccs5)cc4nc2C3(Cl)C1(OC)OC` (some centres not stated), the photoluminescence quantum yield (in CC#N) was 0.57, the photoluminescence quantum yield (in CCOC(C)=O) was 0.22 and the photoluminescence quantum yield (in CO) was 0.49. It also gave a photoluminescence quantum yield (in Cc1ccccc1) of 0.13, a photoluminescence quantum yield (in ClC(Cl)Cl) of 0.35 and a photoluminescence quantum yield (in ClCCl) of 0.33.
`COc1c2ccccc2c(OC)c2c1c1ccc(C)cc1n2C` gave a photoluminescence quantum yield (in C1CCCCC1) of 0.4, a photoluminescence quantum yield (in CC#N) of 0.42 and a photoluminescence quantum yield (in CO) of 0.34. The photoluminescence quantum yield (in ClCCl) was 0.57.
In the case of `Brc1cc2nc3cc4c5c(cccc5c3nc2cc1Br)C(c1ccccc1)=C(c1ccccc1)O4`, the photoluminescence quantum yield (in ClCCl) is reported as 0.12.
In the case of `CCCn1c2cccc3c2[c+]2c4c1cccc4n(CCC)c1cccc(c12)n3CCC`, the photoluminescence quantum yield (in CC#N) is reported as 0.16, the photoluminescence quantum yield (in CO) is reported as 0.2 and the photoluminescence quantum yield (in ClCCl) is reported as 0.16.
For `COc1ccc(C2=C(c3ccc(OC)cc3)c3cccc4c5c(cc(c34)O2)=NC2C=C(Br)C(Br)=CC2N=5)cc1` (configuration not stated), the photoluminescence quantum yield (in ClCCl) was 0.28.
With `CCC(C)(C)c1ccc2c(c1)C(CC)(CC)c1cc(-c3ccc4c(c3)C(CC)(CC)c3cc(C(C)(C)CC)ccc3-4)ccc1-2` the photoluminescence quantum yield (in C1CCCCC1) was 0.85.
With `CCc1c(C)c2n(c1C)[B-](F)(F)[N+]1=C(NCc3ccc(OC)cc3)C=CC1=C2C` the photoluminescence quantum yield (in CC#N) was 0.65, the photoluminescence quantum yield (in CCCCCC) was 0.73 and the photoluminescence quantum yield (in CCOC(C)=O) was 0.59. The photoluminescence quantum yield (in CO) was 0.59 and the photoluminescence quantum yield (in ClCCl) was 0.61.
Compound `Cc1ccccc1-c1c2ccc(=[N+]3CCN(C(=O)OC(C)(C)C)CC3)cc-2oc2cc(N3CCN(C(=O)OC(C)(C)C)CC3)ccc12` has a photoluminescence quantum yield (in CCO) of 0.19 and a photoluminescence quantum yield (in ClCCl) of 0.47.
`CCCCNc1nn(-c2ccc(OC)cc2)nc1C#N` gave a photoluminescence quantum yield (in CC#N) of 0.918.
`CN(C)c1ccc2ccc3oc(=O)c(-c4ccccc4)nc3c2c1` gave a photoluminescence quantum yield (in c1ccccc1) of 0.152.
Compound `c1ccc(/C(=C(\c2ccccc2)c2cc(-c3ccc(-c4ccccc4)cc3)ccc2-c2ccc(-c3ccccc3)cc2)c2cc(-c3ccc(-c4ccccc4)cc3)ccc2-c2ccc(-c3ccccc3)cc2)cc1` has a photoluminescence quantum yield (in C1CCOC1) of 0.32.
Compound `CN(C)c1ccc(C2=Nc3scc(-c4ccc(N(C)C)cc4)[n+]3[B-](F)(F)O2)cc1` has a photoluminescence quantum yield (in C1CCOC1) of 0.01, a photoluminescence quantum yield (in CC#N) of 0 and a photoluminescence quantum yield (in Cc1ccccc1) of 0.66. For the same compound, the photoluminescence quantum yield (in ClCCl) was 0.04.
Compound `c1ccc([B-]23NC(C4CCCCC4)=Nc4cccc([n+]42)N=C(C2CCCCC2)N3)cc1` has a photoluminescence quantum yield (in ClCCl) of 0.1.
Compound `CCCCCC(CC)C1(C(CC)CCCCC)c2ccccc2-c2ccc(C#Cc3cc(C#Cc4ccc5c(c4)C(C(CC)CCCCC)(C(CC)CCCCC)c4ccccc4-5)c4ccc5c(C#Cc6ccc7c(c6)C(C(CC)CCCCC)(C(CC)CCCCC)c6ccccc6-7)cc(C#Cc6ccc7c(c6)C(C(CC)CCCCC)(C(CC)CCCCC)c6ccccc6-7)c6ccc3c4c65)cc21` (configuration not stated) has a photoluminescence quantum yield (in Cc1ccccc1) of 0.67.
`F[B-]1(F)OC(c2ccccc2)=CC(c2ccccc2)=[O+]1` showed a photoluminescence quantum yield (in CC#N) of 0.8 and a photoluminescence quantum yield (in ClC(Cl)(Cl)Cl) of 0.15.
With `CC(C)c1cccc(C(C)C)c1-n1c(=O)c2cc3nc(-c4ccccc4)c4cc5c(=O)n(-c6c(C(C)C)cccc6C(C)C)c(=O)c6cc7c(-c8ccccc8)nc8cc(c1=O)c2c1c3c4c(c56)c7c81` the photoluminescence quantum yield (in ClC(Cl)Cl) was 0.1.
Compound `CCCCCCC1(CCCCCC)c2cc(-c3ccc(-c4ccc(-c5ccc(-c6ccc7c(c6)C(CCCCCC)(CCCCCC)c6cc(-n8c9ccc(-n%10c%11ccccc%11c%11ccccc%11%10)cc9c9cc(-n%10c%11ccccc%11c%11ccccc%11%10)ccc98)ccc6-7)s5)c5nsnc45)s3)ccc2-c2ccc(-n3c4ccc(-n5c6ccccc6c6ccccc65)cc4c4cc(-n5c6ccccc6c6ccccc65)ccc43)cc21` has a photoluminescence quantum yield (in ClCCl) of 0.15.
`C/C(=C\c1ccccc1)c1nc2ccccc2o1` showed a photoluminescence quantum yield (in C1CCCCC1) of 0.007 and a photoluminescence quantum yield (in CO) of 0.002.
`CC1=[N+]2C(=C(c3ccc(C=O)cc3)c3ccc(C)n3[B-]2(F)F)C=C1c1cc2n(c1)[B-](F)(F)[N+]1=CC=CC1=C2c1c(C)cc(C)cc1C` gave a photoluminescence quantum yield (in C1CCCCC1) of 0.92 and a photoluminescence quantum yield (in CCOC(C)=O) of 0.2.
Compound `CC(C)(C)c1ccc2c(c1)c1cc(C(C)(C)C)ccc1n2-c1ccc2oc3nc4oc5ccc(C(F)(F)F)cc5c4cc3c2c1` has a photoluminescence quantum yield (in C1CCCCC1) of 0.113, a photoluminescence quantum yield (in C1CCOC1) of 0.073 and a photoluminescence quantum yield (in CC#N) of 0.032. It also gave a photoluminescence quantum yield (in CS(C)=O) of 0.124, a photoluminescence quantum yield (in Cc1ccccc1) of 0.094 and a photoluminescence quantum yield (in ClC(Cl)Cl) of 0.058.
For `CCn1c(-c2ccc(-c3cccc4ccccc34)cc2)c(-c2ccc3ccccc3c2)c(-c2ccc3ccccc3c2)c1-c1ccc(-c2cccc3ccccc23)cc1`, the photoluminescence quantum yield (in CCOC(C)=O) was 0.35.
`CN1/C(=C/C=C(/C=C/c2sc3ccccc3[n+]2C)c2cc(F)cc(F)c2)Sc2ccccc21` gave a photoluminescence quantum yield (in CCO) of 0.1, a photoluminescence quantum yield (in CO) of 0.08 and a photoluminescence quantum yield (in CS(C)=O) of 0.18.
`CCCCCCCCC1(CCCCCCCC)c2cc3c(cc2-c2sc(-c4ccc(/C=C5\SC(N6CCCCC6)=NC5=O)c5nsnc45)cc21)C(CCCCCCCC)(CCCCCCCC)c1cc(-c2ccc(/C=C4\SC(N5CCCCC5)=NC4=O)c4nsnc24)sc1-3` gave a photoluminescence quantum yield (in C1CCOC1) of 0.14 and a photoluminescence quantum yield (in ClC(Cl)Cl) of 0.144.
With `COc1cccc2cc(C)c3c4ccccc4n(C)c3c12` the photoluminescence quantum yield (in ClCCl) was 0.215.
With `F[B-]1(F)OC(c2ccc(Br)cc2)=Cc2ccc3ccccc3[n+]21` the photoluminescence quantum yield (in ClC(Cl)Cl) was 0.49.
`CCCCc1ccc2ccc3c(CCCC)ccc4ccc1c2c43` gave a photoluminescence quantum yield (in CCCCCC) of 0.47, a photoluminescence quantum yield (in CO) of 0.6 and a photoluminescence quantum yield (in ClCCl) of 0.36.
Compound `c1ccc(-c2nc(-c3ccc(N4c5ccccc5Oc5ccccc54)cc3)nn2-c2ccc(N3c4ccccc4Oc4ccccc43)cc2)nc1` has a photoluminescence quantum yield (in ClCCl) of 0.11.
Work on `CCCCCCCCN1c2ccc(C#Cc3ccc(C(F)(F)F)cc3)cc2Sc2cc(C=O)ccc21` yielded a photoluminescence quantum yield (in C1CCOC1) of 0.67, a photoluminescence quantum yield (in CC#N) of 0.63 and a photoluminescence quantum yield (in CCCCCC) of 0.57. It also gave a photoluminescence quantum yield (in CO) of 0.23, a photoluminescence quantum yield (in CS(C)=O) of 0.72 and a photoluminescence quantum yield (in Cc1ccccc1) of 0.62. For the same compound, the photoluminescence quantum yield (in ClC(Cl)Cl) was 0.59.
`COC(=O)c1ccc(/C=C2\C=C(c3ccc(C#N)cc3)N(CC(C)C)C2=O)cc1` showed a photoluminescence quantum yield (in C1COCCO1) of 0.192.
With `Cc1ccc(-c2ccc(/C=C/c3cccs3)cn2)nc1` the photoluminescence quantum yield (in CC#N) was 0.042.
